Experimental data published in patent US6355799B1, “Substituted benzene compounds, process for their preparation, and herbicidal and defoliant compositions containing them” (ISK Americas Incorporated, priority 1997, dated 2002).

Tests used:
Format in all cases: in vivo
[1] = system: green foxtail (Setaria viridis, SETVI); experiment: Pre-emerge test, greenhouse herbicide activity screening; details: pre-emerge, 14 days after application, scale 0-100
Text: (§1) A standard greenhouse herbicide activity screening system was used to evaluate the herbicidal efficacy and crop safety of these test compounds. Seven broadleaf weed species including redroot pigweed (Amaranthus retroflexus, AMARE, velvetleaf (Abutilon theophrasti, ABUTH), sicklepod (Cassia obtusifolia, CASOB), ivyleaf morningglory (Ipomoea hederacea, IPOHE), lambsquarters (Chenopodium album, CHEAL), common ragweed (Ambrosia artemisizfolia L., AMBEL), and cocklebur (Xanthium strumarium, XANST) were used as test species. Four grass weed species including green foxtail (Setaria viridis, SETVI), barnyardgrass (Echinochloa crus-galli, ECHCG), johnsongrass (Sorghum halepense, SORHA), and large crabgrass (Digitaria sanguinalis, DIGSA) were also used. In addition, three crop species, field corn (Zea mays L., var. Dekalb 535, CORN), soybean (Glycine max L., var. Pella 86, SOY), and is upland rice (Oryza sp., var. Tebonnet, RICE) were included.
(§2) All plants were grown in 10 cm square plastic pots which were filled with a sandy loam soil mix. For pre-emerge tests, seeds were planted one day prior to application of the test compounds. For post-emerge tests, seeds were planted 8-21 days prior to the test to allow emergence and good foliage development prior to application of the test substances. At the time of the post-emerge application, plants of all species were usually at the 2-3 leaf stage of development.
(§3) All test compounds Were dissolved in acetone and applied to the test units in a volume of 187 l /ha. Test materials were applied at rates ranging from 15 g ai/ha to 1000 g ai/ha using a track sprayer equipped with a TJ8001E even flow flat fan spray nozzle. Plants were arranged on a shelf so that the top of the canopy (post-emerge) or top of the soil surface (pre-emerge) was 40-45 cm below the nozzle. Pressurized air was used to force the test solution through the nozzle as it was mechanically advanced (via electrically driven chain drive) over the top of all test plants/pots. This application simulates a typical commercial field herbicide application.
(§4) In the post-emerge test, a commercial non-ionic surfactant was also included (0.25% v/v) to enhance wetting of the leaf surfaces of target plants. Immediately after application, test units of the pre-emerge applications were watered at the soil surface to incorporate the test materials. Subsequently, these test units were bottom-watered. Post-emerge test units were always bottom-watered.
(§5) At 14 days after application of the test materials, phytotoxicity ratings were recorded. A rating scale of 0-100 was used as previously described in Research Methods in Weed Science, 2nd edition, B. Truelove, Ed., Southern Weed Science Society, Auburn University, Auburn, Ala. 1977. Briefly, “0” corresponds to no damage and “100” corresponds to complete death of all plants in the test unit. This scale was used both to determine efficacy against weed species and damage to crop species. Herbicide activity data for various compounds of this invention, which are shown by compound No. in Tables 1-8, are shown in Tables 11 and 12.

[2] = system: sicklepod (Cassia obtusifolia, CASOB); experiment: as above; details: pre-emerge, 14 days after application, scale 0-100
Text: as §1, §2, §3, §4, §5

[3] = system: velvetleaf (Abutilon theophrasti, ABUTH); experiment: as above; details: pre-emerge, 14 days after application, scale 0-100
Text: as §1, §2, §3, §4, §5

[4] = system: lambsquarters (Chenopodium album, CHEAL); experiment: as above; details: pre-emerge, 14 days after application, scale 0-100
Text: as §1, §2, §3, §4, §5

[5] = system: large crabgrass (Digitaria sanguinalis, DIGSA); experiment: as above; details: pre-emerge, 14 days after application, scale 0-100
Text: as §1, §2, §3, §4, §5

[6] = system: barnyardgrass (Echinochloa crus-galli, ECHCG); experiment: as above; details: pre-emerge, 14 days after application, scale 0-100
Text: as §1, §2, §3, §4, §5

[7] = system: ivyleaf morningglory (Ipomoea hederacea, IPOHE); experiment: as above; details: pre-emerge, 14 days after application, scale 0-100
Text: as §1, §2, §3, §4, §5

[8] = system: green foxtail (Setaria viridis, SETVI); experiment: Post-emerge test, greenhouse herbicide activity screening; details: post-emerge, 14 days after application, rating scale 0-100
Text: as §1, §2, §3, §4, §5

[9] = system: sicklepod (Cassia obtusifolia, CASOB); experiment: as above; details: post-emerge, 14 days after application, rating scale 0-100
Text: as §1, §2, §3, §4, §5

[10] = system: velvetleaf (Abutilon theophrasti, ABUTH); experiment: as above; details: post-emerge, 14 days after application, rating scale 0-100
Text: as §1, §2, §3, §4, §5

[11] = system: lambsquarters (Chenopodium album, CHEAL); experiment: as above; details: post-emerge, 14 days after application, rating scale 0-100
Text: as §1, §2, §3, §4, §5

[12] = system: large crabgrass (Digitaria sanguinalis, DIGSA); experiment: as above; details: post-emerge, 14 days after application, rating scale 0-100
Text: as §1, §2, §3, §4, §5

[13] = system: redroot pigweed (Amaranthus retroflexus, AMARE); experiment: as above; details: post-emerge, 14 days after application, rating scale 0-100
Text: as §1, §2, §3, §4, §5

[14] = system: barnyardgrass (Echinochloa crus-galli, ECHCG); experiment: as above; details: post-emerge, 14 days after application, rating scale 0-100
Text: as §1, §2, §3, §4, §5

[15] = system: ivyleaf morningglory (Ipomoea hederacea, IPOHE); experiment: as above; details: post-emerge, 14 days after application, rating scale 0-100
Text: as §1, §2, §3, §4, §5

[16] = system: upland rice (Oryza sp., var. Tebonnet, RICE); experiment: Post-emerge test, crop safety; details: post-emerge, 14 days after application, rating scale 0-100
Procedure, shortened: (§6)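 Applied at 15–1000 g ai/ha from acetone in 187 l/ha spray volume. Post-emergence applications included 0.25% v/v non-ionic surfactant and reached plants sown 8–21 days before. Pre-emergence applications were incorporated by surface watering. Efficacy or crop damage was rated on a 0–100 scale after 14 days.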

[17] = system: field corn (Zea mays L., var. Dekalb 535, CORN); experiment: Post-emerge test, crop safety; details: post-emerge, 14 days after application, rating scale 0-100
Procedure, shortened: as §6

[18] = system: redroot pigweed (Amaranthus retroflexus, AMARE); experiment: Pre-emerge test, greenhouse herbicide activity screening; details: pre-emerge, 14 days after application, scale 0-100
Procedure, shortened: (§7)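 Sandy loam pots; pre-emerge: sown 1 d pre-spray, surface-watered after, then bottom-watered. Post-emerge: sown 8–21 d before, 2–3 leaf stage, + 0.25% v/v NIS, bottom-watered. Acetone, 187 l/ha track spray, 15–1000 g ai/ha. 0–100 injury score, day 14.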

[19] = system: upland rice (Oryza sp., var. Tebonnet, RICE); experiment: Pre-emerge test, crop safety; details: pre-emerge, 14 days after application, scale 0-100
Procedure, shortened: as §7

[20] = system: field corn (Zea mays L., var. Dekalb 535, CORN); experiment: Pre-emerge test, crop safety; details: pre-emerge, 14 days after application, scale 0-100
Procedure, shortened: as §7

SMILES	phytotoxicity rating SETVI ([1]; 63 g ai/ha)	phytotoxicity rating SETVI ([1]; 250 g ai/ha)	phytotoxicity rating CASOB ([2]; 63 g ai/ha)	phytotoxicity rating CASOB ([2]; 250 g ai/ha)	phytotoxicity rating ABUTH ([3]; 63 g ai/ha)	phytotoxicity rating ABUTH ([3]; 250 g ai/ha)	phytotoxicity rating CHEAL ([4]; 63 g ai/ha)	phytotoxicity rating CHEAL ([4]; 250 g ai/ha)	phytotoxicity rating DIGSA ([5]; 63 g ai/ha)	phytotoxicity rating DIGSA ([5]; 250 g ai/ha)	phytotoxicity rating ECHCG ([6]; 63 g ai/ha)	phytotoxicity rating ECHCG ([6]; 250 g ai/ha)	phytotoxicity rating IPOHE ([7]; 63 g ai/ha)	phytotoxicity rating IPOHE ([7]; 250 g ai/ha)	SETVI phytotoxicity rating ([8]; 63 g ai/ha)	SETVI phytotoxicity rating ([8]; 250 g ai/ha)	CASOB phytotoxicity rating ([9]; 63 g ai/ha)	CASOB phytotoxicity rating ([9]; 250 g ai/ha)	ABUTH phytotoxicity rating ([10]; 63 g ai/ha)	ABUTH phytotoxicity rating ([10]; 250 g ai/ha)	other results
Cn1c(C(F)(F)F)cc(=O)n(-c2ccc(C#N)cc2NC(=O)C=Cc2ccccc2)c1=O [2-141]	30	70	30	90	100	100	100	100	35	70	30	95	40	100	20	40	50	95	100	100	CHEAL phytotoxicity rating ([11]; 63 g ai/ha): 95; CHEAL phytotoxicity rating ([11]; 250 g ai/ha): 100; DIGSA phytotoxicity rating ([12]; 63 g ai/ha): 10; DIGSA phytotoxicity rating ([12]; 250 g ai/ha): 30; AMARE phytotoxicity rating ([13]; 63 g ai/ha): 95; AMARE phytotoxicity rating ([13]; 250 g ai/ha): 95; ECHCG phytotoxicity rating ([14]; 63 g ai/ha): 10; ECHCG phytotoxicity rating ([14]; 250 g ai/ha): 30; IPOHE phytotoxicity rating ([15]; 63 g ai/ha): 100; IPOHE phytotoxicity rating ([15]; 250 g ai/ha): 95; RICE phytotoxicity rating (crop damage) ([16]; 63 g ai/ha): 15; RICE phytotoxicity rating (crop damage) ([16]; 250 g ai/ha): 65; CORN phytotoxicity rating (crop damage) ([17]; 63 g ai/ha): 5; CORN phytotoxicity rating (crop damage) ([17]; 250 g ai/ha): 10; phytotoxicity rating AMARE ([18]; 63 g ai/ha): 100; phytotoxicity rating AMARE ([18]; 250 g ai/ha): 100; phytotoxicity rating RICE (crop damage) ([19]; 63 g ai/ha): 30; phytotoxicity rating RICE (crop damage) ([19]; 250 g ai/ha): 70; phytotoxicity rating CORN (crop damage) ([20]; 63 g ai/ha): 0; phytotoxicity rating CORN (crop damage) ([20]; 250 g ai/ha): 45
COc1c(Cl)cc(F)c(-n2c(=O)cc(C(F)(F)F)n(C)c2=O)c1NC(=O)CCc1ccccc1C [2-129]	90	100	60	90	100	100	100	100	60	100	30	80	50	70	80	90	80	100	100	100	CHEAL phytotoxicity rating ([11]; 63 g ai/ha): 100; CHEAL phytotoxicity rating ([11]; 250 g ai/ha): 100; DIGSA phytotoxicity rating ([12]; 63 g ai/ha): 30; DIGSA phytotoxicity rating ([12]; 250 g ai/ha): 70; AMARE phytotoxicity rating ([13]; 63 g ai/ha): 100; AMARE phytotoxicity rating ([13]; 250 g ai/ha): 100; ECHCG phytotoxicity rating ([14]; 63 g ai/ha): 30; ECHCG phytotoxicity rating ([14]; 250 g ai/ha): 50; IPOHE phytotoxicity rating ([15]; 63 g ai/ha): 100; IPOHE phytotoxicity rating ([15]; 250 g ai/ha): 100; RICE phytotoxicity rating (crop damage) ([16]; 63 g ai/ha): 35; RICE phytotoxicity rating (crop damage) ([16]; 250 g ai/ha): 75; CORN phytotoxicity rating (crop damage) ([17]; 63 g ai/ha): 70; CORN phytotoxicity rating (crop damage) ([17]; 250 g ai/ha): 100; phytotoxicity rating AMARE ([18]; 63 g ai/ha): 90; phytotoxicity rating AMARE ([18]; 250 g ai/ha): 100; phytotoxicity rating RICE (crop damage) ([19]; 63 g ai/ha): 40; phytotoxicity rating RICE (crop damage) ([19]; 250 g ai/ha): 80; phytotoxicity rating CORN (crop damage) ([20]; 63 g ai/ha): 50; phytotoxicity rating CORN (crop damage) ([20]; 250 g ai/ha): 90
